Measurements reported in paper PMC9861386, “N-Heterocyclic Carbene-Iridium Complexes as Photosensitizers for In Vitro Photodynamic Therapy to Trigger Non-Apoptotic Cell Death in Cancer Cells” (Molecules, 2023).

Assays:
Format in all cases: cell-based, human
PC-3 = test: MTT cytotoxicity, 48 h; conditions: for GI50: MTT; for SI (PC-3): NIH3T3 vs PC-3
Protocol: (§1) The in vitro cytotoxicity of iridium(III) complexes 4a–4g was first evaluated against cancer cell lines PC-3 (human prostate) and T24 (human bladder) and the non-cancerous NIH-3T3 cell line (murine fibroblasts) using colorimetric MTT tests after 48 h of treatment. The dimeric iridium precursor [IrCl(ppy)2]2 was used as reference and the results are summarized in Table S1 (Supplementary Materials) in the supporting information file. […] The complexes were also evaluated for their cytotoxicity towards healthy NIH-3T3 cells, giving access to the selectivity index (SI). […] No linear correlation between lipophilicity and anti-cancer activity was found for the iridium(III) complexes 4a–4g. For the following biological studies, we focused on the C1 series.
(§2) Table S1. Cytotoxic activity of iridium(III) NHC complexes 4a−4g expressed as GI50 (μM) values towards selected cancer and normal cell lines as determined by MTT assay (48 h).a Complex PC-3 T24 NIH3T3 SI (PC-3) SI (T24) […]
(§3) a GI50 values correspond to the concentration of complexes causing 50 % inhibition of cell growth.
(§4) Data were obtained from three independent experiments.
(§5) The cytotoxic effects of the NHC precursors, the imidazolium salts, which represents the potential hydrolysis and/or degradation products of the complexes, have been published before [SI-1, SI-2]. […]

T24 = test: MTT cytotoxicity, 48 h; conditions: for GI50: MTT; for SI (T24): NIH3T3 vs T24
Protocol: as §1, §2, §3, §4, §5

[1] = test system: MCF7/FasR and MCF7/FasR/Bcl-xL cells; test: Bcl-xL dependence of cell death, MTT in MCF7/FasR vs MCF7/FasR/Bcl-xL; conditions: complexes: 458 nm irradiation, 10 nM to 1 µM, TNFα 100 ng/mL, 72 h
Description: To determine the mechanism of cell death, we used MCF7 cells transfected to express the human Fas receptor (FasR) or doubly transfected to express the human Fas receptor and human Bcl-xL [75]. Since MCF7 cells express the TNF receptor endogenously, this allowed the study of both Fas- and TNFα-mediated apoptosis in the same cell model to assess whether cell death was dependent on the Bcl-2 family of mitochondrial proteins such as Bcl-xL. […]
Mitochondrial outer membrane permeabilization (MOMP), which leads to rapid cell death through the release of mitochondrial proteins (including cytochrome c) that activate executioner caspases, is the critical event in intrinsic apoptosis. […] We then assessed whether the cell death induced by our complexes could be abrogated by the overexpression of Bcl-xL.
A tetrazolium-based MTT reagent (3-(4,5-dimethylthiazol-2-yl)-2,5-diphenyltetrazolium bromide) was used to determine cell viability, as previously described. […] After solubilization with 500 μL of lysis buffer (DMSO), formazan was quantified by spectrophotometry with a microplate reader at 570 nm absorbance (ClarioSTAR, BMG LabTech, Champigny-sur-Marne, France). […] All results were calculated from data obtained in at least three independent experiments. […]
Figure 13 Evaluation of apoptotic biomarkers. […] (B) MTT, ATP and GSH assays were evaluated in duplicate samples. […]

[2] = test system: MCF7/FasR and MCF7/FasR/Bcl-xL cells; test: ATP quantification (CellTiter-Glo); conditions: increasing concentration, 458 nm irradiation, 72 h
Protocol: ATP and glutathione (GSH) contents were measured with the Promega CellTiter-Glo (Cat#G7570) and GSH-Glo (cat#6911) luminescent assays, respectively, according to the manufacturer’s recommendations.
Figure 13 Evaluation of apoptotic biomarkers. MCF7/FasR and MCF7/FasR/Bcl-xL cells were irradiated at 458 nm in presence of the indicated concentration of complex 4a or treated with […] TNFα for 72 h. (A) Cytosolic extracts from MCF7/FasR and MCF7/FasR/Bcl-xL cells were separated by SDS-PAGE and probed with anti-PARP, anti-caspase-7 and anti-caspase-8. Migrations indicated are: full-length PARP p113, cleaved PARP p89, full-length caspase-7 and full-length caspase-8. (B) MTT, ATP and GSH assays were evaluated in duplicate samples. Data are expressed as percent (%) of untreated cells and are the means of 3 independent experiments (***, p < 0.0001, NS, not significant).

PC-3 cells = test: Subcellular localization by confocal microscopy with MitoTracker Deep Red; conditions: 500 nM, 24 h
Description: The intracellular localization of complex 4a was studied by confocal laser scanning microscopy. The treatment of PC-3 (human prostate) cells with complex 4a led to the development of intense fluorescence in the cytoplasm (Figure 9B). Specific subcellular location was investigated by staining the organelles with the specific fluorescent probe MitoTracker Deep Red (Figure 9C). […] However, an accumulation of complex 4a in lysosomes or the endoplasmic reticulum cannot be excluded.
Cell imaging was performed on an LSM 710 NLO-Meta confocal microscope with spectral detection (Zeiss, Göttingen, Germany). Images were taken through a 40×/1.2 W objective. Microscopy imaging experiments were performed with PC-3 cells that were cultured in 6-well plates and on glass slides (180,000 cells per well) for 18 h before incubation with complex 4a at different concentrations (0.25 μM, 0.5 μM and 1 μM) for various times. After 24 h, the MitoTracker deep red probe (Fisher Scientific, Illkirch, France) was incubated on live cells at a final concentration of 200 nM during 15 min at 37 °C in a 5% CO2 humidified incubator and then observed in one pass two channels 440–544 nm for complex 4a (two-photon excitation at 720 nm) and 644–700 nm for MitoTracker (excitation at 633 nm) at the same time. Merged images were generated to evaluate colocalization of the mitochondrial probe with complex 4a. […]

## F[P-](F)(F)(F)(F)F.c1ccc(C[n+]2ccn3[c]2[Ir-3]24([c]5ccccc5-c5cccc[n+]52)([c]2ccccc2-c2cccc[n+]24)[c]2n(cc[n+]2Cc2ccccc2)C3)cc1 [Complex 4c]
PC-3
  GI50: 410 nM
  SI (PC-3): 17.3
T24
  GI50: 430 nM
  SI (T24): 16.5

## CC(C)C[n+]1ccn2[c]1[Ir-3]13([c]4ccccc4-c4cccc[n+]41)([c]1ccccc1-c1cccc[n+]13)[c]1n(cc[n+]1CC(C)C)C2.F[P-](F)(F)(F)(F)F [Complex 4b]
PC-3
  GI50: 510 nM
  SI (PC-3): 6.9
T24
  GI50: 380 nM
  SI (T24): 9.2

## CSc1ccc(-[n+]2ccn3[c]2[Ir-3]24([c]5ccccc5-c5cccc[n+]52)([c]2ccccc2-c2cccc[n+]24)[c]2n(cc[n+]2-c2ccc(SC)cc2)C3)cc1.F[P-](F)(F)(F)(F)F [Complex 4d]
PC-3
  GI50: 710 nM
  SI (PC-3): 12.0
T24
  GI50: 950 nM
  SI (T24): 8.9

## CC(C)[n+]1ccn2[c]1[Ir-3]13([c]4ccccc4-c4cccc[n+]41)([c]1ccccc1-c1cccc[n+]13)[c]1n(cc[n+]1C(C)C)C2.F[P-](F)(F)(F)(F)F [Complex 4a]
PC-3
  GI50: 480 nM
  SI (PC-3): 6.9
T24
  GI50: 310 nM
  SI (T24): 10.6
[1]
  effect of Bcl-xL overexpression on loss of cell viability: not affected by Bcl-xL overexpression
[2]
  ATP level: loss of ATP
PC-3 cells
  Pearson colocalization coefficient with MitoTracker Deep Red (mitochondria): 88%
